In patent publication US10829489B2, “Bicyclic heterocyclic derivatives” (Merck Patent GmbH, priority 2015, dated 2020):

Tests used:
[1] = tested on: PDH-E1alpha (pSer300) in HEK293T cells; test: Cellular immunofluorescence assay for compound activity (Anti-PDH-E1alpha pSer300); assay type: cell-based; settings: Homo sapiens, HEK-293T, 5 hours incubation, read-out: IC50 (cell data)
Experimental: Cellular Assay for Determination of Compound Activities
Compound activities were determined in a cellular immunofluorescence assay. Human HEK293T cells were seeded into black 384-well plates with clear bottom and grown overnight.
Next day, test compounds were added to the wells and the plates incubated for 5 hours. Following this, cells were fixed with formaldehyde, permeabilised and blocked. The primary antibody, Anti-PDH-E1alpha (pSer300), AP1064 (Merck Millipore) was added and incubated overnight in the plate wells. Next, cells were washed and the secondary antibody, Alexa Fluor 488, goat anti-rabbit ab (A-11008, Invitrogen) was added together with Hoechst 33258 (H3569, Invitrogen) and incubated for 1 hour in the plate wells. Finally, cells were washed and the plates were measured on the laser scanning cytometer acumen hci (TTpLabtech).
The raw data were normalized against a pharmacological inhibitor control and dose response curves were generated by plotting the percent effect values using the software package Genedata screener (Genedata).

PDHK2 = PDHK2 (Homo sapiens (Human), UniProt Q15119); test: Biochemical activity testing of PDHK2: PDC inactivation assay; settings: human rec PDHK2, PDC inactivation assay; read-out: IC50 PDHK2 (enzyme assay)
Description: Biochemical Activity Testing of PDHK2: PDC Inactivation Assay
The biochemical activity assay for PDHK2 is based on the inactivation of PDC through phosphorylation by PDHK2. The assay is run in two steps: the enzymatic PDHK2 reaction in which isolated PDC is phosphorylated by PDHK2 with ATP as co-substrate and the PDC activity assay in which pyruvate and NAD are converted to acetyl-CoA and NADH. The PDC activity correlates to the increase in NADH and thereby is detectable directly via the increasing fluorescence signal (Exc 340 nm, Em 450 nm). Inhibition of PDHK2 results in a lower phosphorylation status and thereby a less decrease in activity of PDC and a stronger increase in NADH fluorescence signal.
The PDC inactivation assay is performed in Greiner 384-well microtiter plates and is used for high throughput screen. […] The first fluorescence measurement is performed on a Perkin Elmer Envision (Exc 340 nm, Em 450 nm). […] Afterwards a second fluorescence measurement is performed and the PDC activity is calculated by the difference between both measurements. […] The inhibitory values (IC50) were determined using either the program Symyx Assay Explorer® or Condosseo® from GeneData.

human PDHK2 (12-407) = human PDHK2 (12-407) (Homo sapiens (Human), UniProt Q15119); test: Isothermal titration calorimetry (ITC) binding; settings: 30° C.
Experimental: Isothermal Titration Calorimetry
ITC measurements were performed with a VP-ITC micro calorimeter (Microcal, LLC/GE Healthcare Bio-Sciences AB, Uppsala, Sweden). In general titrations were performed by titrating the protein (50 μM) to the test compound (5 μM) in 12 μl injections. All binding experiments were carried out at 30° C. In general the test compounds were diluted form DMSO stock solutions into the measurement buffer with a maximum final concentration of 1% DMSO. The measurement buffer was 20 mM HEPES, 135 mM KCl, 1 mM TCEP, 2 mM MgCl2, 15 mM NaH2PO4, pH 7.5. The human PDHK2 (12-407) was produced in E. coli as his-tagged protein and purified by affinity chromatography. The tag was removed by side specific proteolysis. Before titration the protein buffer was changed to the measurement buffer containing the same DMSO concentration as the test compound dilution. ITC data analysis was performed using Origin 7 calorimetry software from the same supplier. For most measurements a binding model of one binding site was assumed. According to the applied mathematical model it is possible to calculate the binding constant (KA), the observed binding enthalpy (ΔH^obs) as well as the stoichiometry (N) of the formed complex. Preceding analysis the raw data was corrected for the heats of dilution by extrapolating from the saturation value from the end of titration. In order to allow for direct comparison between the respective experimental series and protein preparations the protein concentration was corrected by referencing titrations to a well behaved standard inhibitor. The apparent stoichiometry values defined the fraction of binding competent protein and compensated for relative errors in protein concentration measurements. This corrected protein concentration was used to set up ITC experiment series with test compounds. Any deviations from ideal 1:1 stoichiometry observed here were attributed to errors in compound concentration. This nominal compound concentration was corrected as well to achieve 1:1 stoichiometry in the fit.

IC50 (PDHK2) | Compound | IC50 [1] | Kd (human PDHK2 (12-407))
< 300 nM | COc1ccc(-n2ncc3c2[C@H](C)CN(C(=O)[C@@](C)(O)C(F)(F)F)C3)cn1 [Compound A30, (R)-3,3,3-Trifluoro-2-hydroxy-1-[(R)-1-(6-methoxy-pyridin-3-yl)-7-methyl-1,4,6,7-tetrahydro-pyrazolo[4,3-c]pyridin-5-yl]-2-methyl-propan-1-one] | < 300 nM | < 300 nM
 | C[C@@](O)(C(=O)N1CCc2c(ncn2-c2ccc(F)cc2)C1)C(F)(F)F [Compound A44, (R)-3,3,3-Trifluoro-1-[1-(4-fluoro-phenyl)-1,4,6,7-tetrahydro-imidazo[4,5-c]pyridin-5-yl]-2-hydroxy-2-methyl-propan-1-one] |  | < 300 nM
 | C[C@@](O)(C(=O)N1CCc2c(ncn2-c2ccc(Cl)cc2)C1)C(F)(F)F [Compound A45, (R)-1-[1-(4-Chloro-phenyl)-1,4,6,7-tetrahydro-imidazo[4,5-c]pyridin-5-yl]-3,3,3-trifluoro-2-hydroxy-2-methyl-propan-1-one] |  | < 300 nM
3000 to 50000 nM | COc1ccc(-n2ncc3c2[C@@H](C)CN(C(=O)[C@@](C)(O)C(F)(F)F)C3)cn1 [Compound A31, (R)-3,3,3-Trifluoro-2-hydroxy-1-[(S)-1-(6-methoxy-pyridin-3-yl)-7-methyl-1,4,6,7-tetrahydro-pyrazolo[4,3-c]pyridin-5-yl]-2-methyl-propan-1-one] |  | 
